Measurements: patent US20080181957A1, “INCREASED AMORPHOUS STABILITY OF POORLY WATER SOLUBLE DRUGS BY NANOSIZING” (priority 2006, published 2008)

Experiments:
Assay type in all cases: physicochemical
Water solubility = conditions: 25 °C
Protocol: “Water solubility” means a measure of the maximum possible concentration of a drug dissolved in water. The water temperature may be specified; in an embodiment water solubility is determined at 25 Deg. C. Units of measurement of water solubility are typically mass/volume, such as mg/ml. […] C.; preferably less than or equal to about 0.1 mg/ml at 25 Deg. […] C.

[1] = XRD amorphous stability of dried samples on storage; conditions: storage 3 month and 1 year, nanosized sample dried by lyophilization, FIGS. 1 and 2
[2] = DSC amorphous stability (recrystallization) on storage at 25 Deg C; conditions: FIG. 3; for crystallinity: DSC
Protocol: The amorphous state of the amorphous drug core is determined by subjecting a population of nanoparticles that comprise one or more nanoparticles that comprise the recited amorphous drug core to differential scanning calorimetry (DSC). In an embodiment, a DSC method according to the invention used a Perkin-Elmer DSC-7 or a Diamond DSC calorimeter applied for the measurement of specific transition temperatures of tested samples. Thus, the glass transition (Tg), melting (Tm) and crystallization (Tc) temperatures were measured for each sample, according to the PN-EN ISO 11357-1:2002 (ISO 11357-1:1997), ISO 11357-2:1999 and ISO 11357-3:1999 standards, at the rate of temperature change of 10 Deg C./min. The instrument was calibrated using indium, tin and zinc certified reference materials (CRMs)
The amorphous state of the amorphous drug core, as measured by DSC is expressed as a weight fraction of the weight of amorphous material in the amorphous drug core to the total weight of the amorphous drug core, expressed as an average value across the population of nanoparticles being measured. For instance, if a population of nanoparticles was measured using DSC, and the amorphous state was determined to be a particular value for the population, that value would be considered the average amorphous state for each nanoparticle within the population. An inventive amorphous drug core may contain a small amount of crystalline drug.
“Amorphous stability” means a measure of how much a material changes in its structure from being amorphous to being crystalline under defined conditions and a set timeframe. […] For instance, an amorphous material that is initially 98% w/w amorphous is considered amorphously stable according to the invention if, at the end of 6 months testing at 25 degree C., the material is at least 88% w/w amorphous. The amorphous state of a material according to the invention is determined using a DSC method as detailed above and elsewhere herein.

Row | solubility (Water solubility) | crystallinity ([2]; 4 month time point) | crystallinity ([2]; 5 month time point) | crystallinity ([2]; 6 month time point) | storage time after which recrystallization was detectable by DSC ([2]; storage at 25 Deg C) | Structure (SMILES) | XRD amorphous stability [1]
1 | ≤ 0.2 ng/mL |  |  |  |  | O=C(NN1CCCCC1)c1nn(-c2ccc(Cl)cc2Cl)c2c1CCC/C2=C\c1ccc(F)cc1 [COMPOUND 1] | 
2 |  | 0.44% | 1.39% | 10.54% | 4 month | O=C(NN1CCCCC1)c1nn(-c2ccc(Cl)cc2Cl)c2c1CCC/C2=C\c1ccc(F)cc1 [bulk amorphous COMPOUND 1] | XRD amorphous stability can be achieved up to 1 year
